We go through three compounds from US20100267653A1, “USE OF COUMARIN DERIVATIVES IN ANTIFUNGAL THERAPY” (priority 2006, published 2010).

SMILES strings stand for the structures. In brackets after ≈: the same amount, converted by molar mass. Some results are limits rather than exact numbers.

A short description of data set [1]: Solubility of coumarins in RPMI 1640 media and DMSO. The note with it: for solubility: aqueous buffer, kinetic from dmso stock, pH = 7.0, in presence of the DMSO concentration of the same table line. Format: physicochemical. As for the experimental part:
The solubility of the aglycones was compared to the respective glycoside in RPMI 1640 media and in DMSO.
(§1) Solubilisation of other compounds required the presence of DMSO. Esculetin, daphnetin, 4-(trifluoromethyl) coumarin, 4-(trifluoromethyl)-coumarin-7-0-glucose and cichoriin were dissolved in DMSO at 1000× final test concentration; when this solution was diluted to the concentration used in the experiments using 2× strength RPMI 1640 medium, the final concentration of DMSO was […] which alone had no effect on the fungi when tested in several experiments performed. Fraxetin required a final concentration of 0.2% DMSO, but this too had no effect on the growth of the fungi when tested in separate experiments.

The next data set relates to T. tonsurans. As to the kind of experiment: Sensitivity of clinical isolates of dermatophytes to esculetin. Format: cell-based, Trichophyton tonsurans. Also on record: key to Sensitive (S) or Resistant (R): Sensitive (S); Resistant (R). Conditions: 2 strains tested. On the procedure:
(§2) Esculin, esculetin and a range of other coumarins and their glycosides were tested for their antifungal activity against Trichophyton rubrum, Trichophyton interdigitale and other fungi isolated from nails and skin.
(§3) Suspensions of fungal conidia and hyphal fragments for use as experimental inocula were prepared by adding 3 ml of demineralised water or 0.15% (w/v) NaCl solution to a slope culture which had been incubated at 30° C. for 7 to 10 days and probing the surface of the culture with a sterile plastic transfer pipette. […] The resulting suspension was filtered through a double layer of sterile surgical gauze; if necessary a further volume of up to 3 ml of water or 0.15% (w/v) NaCl was used to wash through any spores or small hyphal fragments held on the gauze. […]
(§4) A series of dilutions of the coumarin solutions was prepared on the plates by mixing known volumes of the coumarin stock solutions in the wells with fresh volumes of 2×RPMI 1640 medium. […] For observations on Trichophyton rubrum NCPF118 and Trichophyton interdigitale NCPF335, obtained from the National Collection of Pathogenic Fungi (Bristol), the plates were incubated in a Bio-Tek Powerwave XS scanning plate reader at 30° C., and fungal growth within the plates was measured at intervals of 2 h for up to 72 h or 96 h as specified in the text by recording the absorbance (optical density) of the wells at 530 nm. […]

A further data set has as its system Alternaria spp. As to the kind of experiment: Sensitivity of other fungal isolates of pathogenic fungi to esculetin. Format: cell-based. Also on record: key to Sensitive (S) or Resistant (R): Sensitive (S); Resistant (R). Conditions: 1 strain tested. On the procedure:
as §2
(§5) Suspensions of fungal conidia and hyphal fragments for use as experimental inocula were prepared by adding 3 ml of demineralised water or 0.15% (w/v) NaCl solution to a slope culture which had been incubated at 30° C. for 7 to 10 days and probing the surface of the culture with a sterile plastic transfer pipette. […] The resulting suspension was filtered through a double layer of sterile surgical gauze; if necessary a further volume of up to 3 ml of water or 0.15% (w/v) NaCl was used to wash through any spores or small hyphal fragments held on the gauze. 100 μl of this suspension, adjusted to an optical density between 0.14 and 0.16 at 530 nm (corresponding to between 0.5 and 1.5×10^6 propagules/ml) was added to the wells in sterile 96-well microtitre plates to which 100 μl of 2× strength RPMI 1640 media (a chemically-defined nutrient medium widely used in tissue culture and antimicrobial resistance testing) had been added. Inocula prepared in this way were used in all of the experiments; additionally, for some experiments with esculin shown in FIG. 4, the results obtained with standard inocula prepared as described above (labelled “young inoculum” in FIG. 4), were compared with the results obtained in similar tests using inocula which had been cultured for up to 9 weeks (labelled “old inoculum” in FIG. 4). As appropriate, coumarins were pre-dissolved in 2× strength RPMI 1640 medium before addition to the plate. Experiments with the yeasts Candida albicans and Candida krusei were set up in the same way, but in these cases, filtration of the cell suspensions was not necessary.
as §1
(§6) A series of dilutions of the coumarin solutions was prepared on the plates by mixing known volumes of the coumarin stock solutions in the wells with fresh volumes of 2×RPMI 1640 medium. Each concentration of coumarin was studied in triplicate wells. For observations on Trichophyton rubrum NCPF118 and Trichophyton interdigitale NCPF335, obtained from the National Collection of Pathogenic Fungi (Bristol), the plates were incubated in a Bio-Tek Powerwave XS scanning plate reader at 30° C., and fungal growth within the plates was measured at intervals of 2 h for up to 72 h or 96 h as specified in the text by recording the absorbance (optical density) of the wells at 530 nm. Observations on Candida albicans and Candida krusei were made in the same way, but the incubation temperature was 37° C. and the incubation time was 48 h. For observations with clinical fungal isolates obtained from the collection of M. Monod (Lausanne, Switzerland), the procedure was as described above except that in response to the relatively slow growth of these isolates, incubations were performed in a static incubator at 30° C. and the plates were read manually in a Bio-Tek Powerwave XS scanning plate reader at intervals of 24 h for up to 168 h, being returned to the incubator after each reading. Malassezia furfur grows poorly in the system described above, so for this organism, a standard inoculum of M. furfur was mixed with an equal volume of a solution of esculetin and the mixture was plated onto Petri dishes containing Sabouraud's agar medium. […]

In another data set the test system is Curvularia spp. The description is as above. Format: cell-based. Also on record: key to Sensitive (S) or Resistant (R): Sensitive (S); Resistant (R). Conditions: 1 strain tested. On the procedure:
as §2, §5, §1, §6

A further data set deals with Fusarium spp. The description is as above. Format: cell-based. Also on record: key to Sensitive (S) or Resistant (R): Sensitive (S); Resistant (R). Conditions: 15 strains tested. As for the experimental part: as §2, §5, §1, §6
Data set [2] relates to Scopulariopsis brevicaulis. The data set is described as above. Format: cell-based. Also on record: key to Sensitive (S) or Resistant (R): Sensitive (S); Resistant (R). Conditions: 4 strains tested. As for the experimental part: as §2, §5, §1, §6
Another data set relates to Aspergillus fumigatus. The description is as above. Format: cell-based. Also on record: key to Sensitive (S) or Resistant (R): Sensitive (S); Resistant (R). The note with it: 1 strain tested. As for the experimental part:
as §2, §5, §1, §6

In data set [3] the test system is T. mentagrophytes var interdigitale strain 386. Nature of the data set: Sensitivity of clinical isolates of dermatophytes to esculetin. Format: cell-based, Trichophyton mentagrophytes var. interdigitale. Also on record: key to Sensitive (S) or Resistant (R): Sensitive (S); Resistant (R). Conditions: strain 386, 1 strain tested. On the procedure: as §2, §3, §4
The subject of data set [4] is Trichophyton rubrum NCPF118. As to the kind of experiment: Antifungal activity, growth in RPMI 1640 microtitre plates (OD 530 nm). Format: cell-based. On the procedure:
as §2, §5, §1, §6

The next data set has as its system T. mentagrophytes. As to the kind of experiment: Sensitivity of clinical isolates of dermatophytes to esculetin. Format: cell-based, Trichophyton mentagrophytes. Also on record: key to Sensitive (S) or Resistant (R): Sensitive (S); Resistant (R). Conditions: 27 strains tested. As for the experimental part: as §2, §3, §4
Data set [5] concerns Candida albicans, Cryptococcus neoformans, Saccharomyces cerevisiae and Aspergillus niger. The note with it: Sardari et al, Bioorg. Med. Chem. 7, 1999; cited from earlier work.
The next data set has as its system T. rubrum strain 1072. As to the kind of experiment: Sensitivity of clinical isolates of dermatophytes to esculetin. Format: cell-based, Trichophyton rubrum. Also on record: key to Sensitive (S) or Resistant (R): Sensitive (S); Resistant (R). The note with it: T. rubrum strain 1072, 3 tested. On the procedure:
as §2, §3, §4

The subject of the next data set is T. soudanense. Described as above. Format: cell-based, Trichophyton soudanense. Also on record: key to Sensitive (S) or Resistant (R): Sensitive (S); Resistant (R). Conditions: 2 strains tested. On the procedure:
as §2, §3, §4

In the next data set the test system is Trichophyton rubrum. Described as above. Format: cell-based. Also on record: key to Sensitive (S) or Resistant (R): Sensitive (S); Resistant (R). The note with it: 48 strains tested. As for the experimental part: as §2
(§7) Suspensions of fungal conidia and hyphal fragments for use as experimental inocula were prepared by adding 3 ml of demineralised water or 0.15% (w/v) NaCl solution to a slope culture which had been incubated at 30° C. for 7 to 10 days and probing the surface of the culture with a sterile plastic transfer pipette. […] The resulting suspension was filtered through a double layer of sterile surgical gauze; if necessary a further volume of up to 3 ml of water or 0.15% (w/v) NaCl was used to wash through any spores or small hyphal fragments held on the gauze. 100 μl of this suspension, adjusted to an optical density between 0.14 and 0.16 at 530 nm (corresponding to between 0.5 and 1.5×10^6 propagules/ml) was added to the wells in sterile 96-well microtitre plates to which 100 μl of 2× strength RPMI 1640 media (a chemically-defined nutrient medium widely used in tissue culture and antimicrobial resistance testing) had been added. Inocula prepared in this way were used in all of the experiments; additionally, for some experiments with esculin shown in FIG. 4, the results obtained with standard inocula prepared as described above (labelled “young inoculum” in FIG. 4), were compared with the results obtained in similar tests using inocula which had been cultured for up to 9 weeks (labelled “old inoculum” in FIG. 4). As appropriate, coumarins were pre-dissolved in 2× strength RPMI 1640 medium before addition to the plate. […]
as §6, with “Each concentration of coumarin was studied in triplicate wells.” left out, “Observations on Candida albicans and Candida krusei were made in the same way, but the incubation temperature was 37° C. and the incubation time was 48 h.” left out, “reading.” for “reading. Malassezia furfur grows poorly in the system described above, so for this organism, a standard inoculum of M. furfur was mixed with an equal volume of a solution of esculetin and the mixture was plated onto Petri dishes containing Sabouraud's agar medium.”

The next data set deals with Microsporum canis. The description is as above. Also on record: key to Sensitive (S) or Resistant (R): Sensitive (S); Resistant (R). The note with it: 4 strains tested. Format: cell-based. As for the experimental part:
as §2, §7
as §6, with “Each concentration of coumarin was studied in triplicate wells.” left out, “Observations on Candida albicans and Candida krusei were made in the same way, but the incubation temperature was 37° C. and the incubation time was 48 h.” left out, “reading.” for “reading. Malassezia furfur grows poorly in the system described above, so for this organism, a standard inoculum of M. furfur was mixed with an equal volume of a solution of esculetin and the mixture was plated onto Petri dishes containing Sabouraud's agar medium.”

The test system of another data set is M. gypseum. The data set is described as above. Also on record: key to Sensitive (S) or Resistant (R): Sensitive (S); Resistant (R). The note with it: clinical isolate, 1 strain tested. Format: cell-based, Microsporum gypseum. As for the experimental part:
as §2, §3, §4

Data set [6] has as its system Trichophyton interdigitale NCPF335. Nature of the data set: Antifungal activity, growth in RPMI 1640 microtitre plates (OD 530 nm). Format: cell-based. Conditions: Trichophyton interdigitale; T. interdigitale NCPF335, 30° C. On the procedure: as §2, §5, §1, §6

As a reminder, the MIC is the lowest concentration found to suppress growth. Usually solubility stands for the concentration that dissolves in the medium under given conditions.

For the compound `O=c1cc(C(F)(F)F)c2ccc(OC3O[C@H](CO)[C@@H](O)[C@H](O)[C@H]3O)cc2o1` (some centres unmarked) [4-(trifluoromethyl)coumarin-7-glucoside], in [1] (pH 7), the “DMSO Concentration” value was 0 % v/v.

For `O=c1ccc2cc(O)c(O)cc2o1` [Esculetin, 6,7 dihydroxycoumarin], the “MIC esculetin, range in mM” value in the data set on T. tonsurans was 0.25 ± 0.18 mM (≈ 44.5 µg/mL); in [3] it was “≧2 mM”; in the data set on T. mentagrophytes it was 1.1 ± 0.5 mM (≈ 196 µg/mL); with T. rubrum strain 1072 it was “≧2 mM”; against T. soudanense, 0.31 ± 0.27 mM (≈ 55.2 µg/mL); in the data set with Trichophyton rubrum, 0.54 ± 0.37 mM (≈ 96.2 µg/mL). The “MIC esculetin, range in mM” value against Microsporum canis is 1.0 ± 0.58 mM (≈ 178 µg/mL); against M. gypseum it was “≧2 mM”. For the same compound, the “Sensitive (S) or Resistant (R)” value in the data set with T. tonsurans is “S”; in the data set with Alternaria spp. it was “S”; in the data set on Curvularia spp., “R”; in the data set on Fusarium spp., “R”; in data set [2], “R”; in the data set with Aspergillus fumigatus it was “R”. Further, the “Sensitive (S) or Resistant (R)” value in data set [3] is “R”; in the data set on T. mentagrophytes, “S”; in the data set on T. rubrum strain 1072, “R”; in the data set on T. soudanense, “S”; in the data set on Trichophyton rubrum, “S”; with Microsporum canis, “S”. For the same compound, the “Sensitive (S) or Resistant (R)” value with M. gypseum is recorded as “R”. The MIC against Alternaria spp. (Alternaria) was 1000 µM (≈ 178 µg/mL); with Curvularia spp. (Curvularia), at least 2000 µM; against Fusarium spp. (Fusarium) it was at least 2000 µM; in data set [2] (Scopulariopsis brevicaulis) it was at least 2000 µM; against Aspergillus fumigatus (Aspergillus fumigatus), at least 2000 µM. For the same compound, in data set [4] (FIG. 3), the “antifungal effect versus T. rubrum NCPF118” value is recorded as “dose-dependent antifungal effect”. In addition, the solubility in [1] (RPMI 1640 medium with DMSO co-solvent) came to 5000 µM. For the same compound, the “DMSO Concentration” value in [1] (pH 7) was determined as 0.1 % v/v. Further, in data set [5], the “antifungal activity against the fungi tested” value is “minimal antifungal activity”.

For `O=c1ccc2ccc(O)c(O)c2o1` [Daphnetin, 7,8-dihydroxycoumarin], the MIC in data set [4] (Trichophyton rubrum, T. rubrum NCPF118, 30° C., read-out: MIC) stood at 500 µM (≈ 89.1 µg/mL); in data set [6], 250 µM (≈ 44.5 µg/mL). Further, the “DMSO Concentration” value in data set [1] (DMSO present for the stated solubility in RPMI 1640) is listed as 0.1 % v/v. The solubility in data set [1] amounted to 5000 µM.
